The source of these data is patent US20090148424A1, “Reversibly immortalized mammalian liver cells and use thereof” (priority 2004, published 2009).

The test system of one experiment is CYNK-1 cell. As to the kind of experiment: Ganciclovir sensitivity of CYNK-1 cell (MTT assay). The format is cell-based, human. The conditions noted are these: one-week cultivation with 5 μM of GCV. The source says: (§1) Two hundred CYNK-1 cells (deposited with International Patent Organism Depository, National Institute of Advanced Industrial Science and Technology, address: AIST Tsukuba Central 6, 1-1, Higashi 1-Chome, Tsukuba-shi, Ibaraki-ken, 305-8566 Japan, deposited date: Mar. 10, 2004, accession number: FERM BP-08657) were inoculated in a 96-well plate, cultured in CS-C serum free culture medium alone or CS-C serum free culture media containing various concentrations of ganciclovir (5, 10, 20, 50 or 100 μM) and then cell proliferation was investigated by MTT assay (see Mcsmann T. J., Immunol. Methods, 65, 55, 1983).
Cell viability is shown in FIG. 7 as relative sensitivity. Ganciclovir sensitivity of the CYNK-1 cell (deposited with International Patent Organism Depository, National Institute of Advanced Industrial Science and Technology, address: AIST Tsukuba Central 6, 1-1, Higashi 1-Chome Tsukuba-shi, Ibaraki-ken, 305-8566 Japan, deposited date: Mar. 10, 2004, accession number: FERM BP-08657) depends on the concentration of ganciclovir.
On the technique in general: Formazan colour is commonly taken as a measure of viable cells.

The next experiment has as its system reverted CYNK-1 cells. Description: Ganciclovir sensitivity of reverted CYNK-1 cells. The format is cell-based, human.
Text: as §1, with “[…].,” for “Mcsmann T. J.,”, “1983). […] All of the cells died within 10 days.” for “1983).”

A value given as a limit tells only on which side of the number the result lay.

For `Nc1nc(O)c2ncn(COC(CO)CO)c2n1` [GCV, ganciclovir], the “effect on cell proliferation / viability” value in the experiment with CYNK-1 cell is “stopped cell proliferation and some of the cells died”; with reverted CYNK-1 cells (one-week cultivation in the presence of 5 μM of GCV), “stopped cell proliferation and some of the cells died”. Also, the “time until all of the cells died” value in the experiment on reverted CYNK-1 cells (5 μM of GCV) was at most 10 days.
